The values that follow come from paper PMC12305494, “Discovery of PXR Antagonist MI891 and PXR Degrader MI1013 and Their Roles in Hepatic Gene Regulation” (Journal of Medicinal Chemistry, 2025).

The target in one data set is T1, CAR3 variant (Homo sapiens, UniProt Q14994, DEL233-236).
T1 construct: expressed in transfected cells
In words: CAR3 variant luciferase reporter assay. Type of data set: cell-based. Particulars: at concentrations up to 10 μM. As for the experimental part: Rhesus monkey, mouse, and rat PXR expression vectors (100 ng/well each) were also obtained from GenScript. […] Carlberg (University of Kuopio, Kuopio, Finland).
The cells were cultured in DMEM medium (Merck) supplemented with 10% fetal bovine serum.
Background: In a reporter assay the amount or activity of a reporter protein is the signal.

Data set [1] is described as follows: Microsomal stability, human microsomes. The format is in vitro ADME. Particulars: liver microsomes; 0.5 mg/mL human microsomes, 5 μM, up to 45 min; read-out: Microsomal stability, t1/2 (min), human. The method, then: The protocols and reagents for the plasma protein binding assay and metabolic stability testing in human and mouse liver microsomes are detailed in our previous report. […] The stability of compounds was tested in human and mouse microsomes (ThermoFisher Scientific). Compounds were tested in triplicate with or without NADPH wells as a negative control for cytochrome P450 metabolism. […] Each assay included a substrate with known activity as a positive control. Time points were analyzed by LC/MS/MS. The peak area for the parent compound is compared to the time zero sample in order to assess the amount of remaining compound.
A general note: Microsomes from liver hold many membrane-bound enzymes, among them those of drug oxidation.

The target in another data set is T2, MAPKAP-K2(h) (Homo sapiens, UniProt P49137).
T2 construct: purchased Eurofins (Millipore) KinaseProfiler, inferred from the naming style
The data set can be described thus: Off-target kinase panel. Particulars: MI891 @ 1 µM. Type of data set: biochemical. As for the experimental part: (§1) To evaluate the selectivity of MI891, an off-target profiling study was performed using a panel of 58 kinases.

The next data set has as its target Abl(h) (Homo sapiens, UniProt P00519). The data set can be described thus: Off-target kinase panel. The format is biochemical. The following applies: MI891 @ 1 µM. As for the experimental part:
as §1

For another data set, the target named is CDK6/cyclinD3(h) (Homo sapiens, UniProt Q00534). The data set can be described thus: Off-target kinase panel. Type of data set: biochemical. Particulars: MI891 @ 1 µM. As for the experimental part: as §1
The target in a further data set is T3, SRPK1(h) (Homo sapiens, UniProt Q96SB4).
T3 construct: purchased Eurofins (Millipore) KinaseProfiler, inferred from the naming style
In words: Off-target kinase panel. The format is biochemical. The following applies: MI891 @ 1 µM. As for the experimental part:
as §1

The target of a further data set is T4, MSK2(h) (Homo sapiens, UniProt O75676).
T4 construct: purchased Eurofins (Millipore) KinaseProfiler, inferred from the naming style
In words: Off-target kinase panel. Type of data set: biochemical. Particulars: MI891 @ 1 µM. The method, then:
as §1

A further data set deals with T5, JAK2(h) (Homo sapiens, UniProt O60674).
T5 construct: purchased Eurofins (Millipore) KinaseProfiler, inferred from the naming style
In words: Off-target kinase panel. Particulars: MI891 @ 1 µM. Type of data set: biochemical. As for the experimental part: as §1

Another data set concerns the target T6, Rsk1(h) (Homo sapiens, UniProt Q15418).
T6 construct: purchased Eurofins (Millipore) KinaseProfiler, inferred from the naming style
The data set can be described thus: Off-target kinase panel. The following applies: MI891 @ 1 µM. The format is biochemical. The method, then: as §1

The next data set has as its target T7, IRAK4(h) (Homo sapiens, UniProt Q9NWZ3).
T7 construct: purchased Eurofins (Millipore) KinaseProfiler, inferred from the naming style
The data set can be described thus: Off-target kinase panel. Type of data set: biochemical. The following applies: MI891 @ 1 µM. As for the experimental part:
as §1

Data set [2] deals with T8, PI3 Kinase (p110a/p85a)(h) (Homo sapiens, UniProt P42336).
T8 construct: purchased Eurofins (Millipore) KinaseProfiler, inferred from the naming style
The data set can be described thus: Off-target kinase panel. Particulars: MI891 @ 1 µM. The format is biochemical. The method, then:
as §1

For a further data set, the target named is T9, PKCα(h) (Homo sapiens, UniProt P17252).
T9 construct: purchased Eurofins (Millipore) KinaseProfiler, inferred from the naming style
In words: Off-target kinase panel. Particulars: MI891 @ 1 µM. The format is biochemical. As for the experimental part: as §1

The target of a further data set is AMPKα1(h) (Homo sapiens, UniProt Q13131). The data set can be described thus: Off-target kinase panel. Type of data set: biochemical. The following applies: MI891 @ 1 µM. The method, then:
as §1

The next data set deals with T10, MEK1(h) (Homo sapiens, UniProt Q02750).
T10 construct: purchased Eurofins (Millipore) KinaseProfiler, inferred from the naming style
In words: Off-target kinase panel. The format is biochemical. The following applies: MI891 @ 1 µM. As for the experimental part:
as §1

In another data set the target is T11, LOK(h) (Homo sapiens, UniProt O94804).
T11 construct: purchased Eurofins (Millipore) KinaseProfiler, inferred from the naming style
In words: Off-target kinase panel. Type of data set: biochemical. The following applies: MI891 @ 1 µM. The method, then: as §1

A further data set deals with CDK7/cyclinH/MAT1(h) (Homo sapiens, UniProt P50613). In words: Off-target kinase panel. Type of data set: biochemical. Particulars: MI891 @ 1 µM. As for the experimental part: as §1
In another data set the test system is RXRα. The data set can be described thus: Western blot of RXRα in HepaRG cells. Type of data set: cell-based, human. Particulars: 24 h. As for the experimental part: (§2) The harvested HepaRG cells were lysed in RIPA lysis buffer (Cat. no 89900, Thermo Scientific) containing Halt protease inhibitor cocktail inhibitors (Thermo Scientific). Protein concentration was measured using the Pierce BCA Protein Assay Kit (Cat. no. 23225, Thermo Scientific), samples were diluted in 4 × Laemmli sample buffer (Cat. no. 1610747, BioRad) supplemented with mercaptoethanol and heated at 95 °C for 5 min. Equal amounts of protein were loaded in 4–20% Mini-PROTEAN TGX Stain-Free Protein Gels (12 well. cat. no. 4561095 or 15 well, cat. no. 4568096, Bio-Rad), electrophorised, and transferred onto Trans-Blot Turbo Midi-size PVDF Membrane (cat. no. 1704273, Bio-Rad), and blocked with EveryBlot Blocking buffer for 10 min (cat. no. 12010020, Bio-Rad). […] Chemiluminescence signals were detected using SuperSignal West Femto Maximum Sensitivity Substrate (cat. no. 34096, Thermo Scientific) and visualized by the ChemiDoc MP Imaging system (Universal Hood III, #731BR02821, Bio-Rad), and the bands were quantified using β-actin (1:2000, recombinant rabbit conjugated monoclonal antibody (JF53-10), cat. no. MA5-32540, Invitrogen) as loading control with ImageJ (version 1.54g) software.
In general terms: Immunoblotting shows a protein as a band on a membrane.

The target in a further data set is T12, PXR (Homo sapiens, UniProt O75469).
T12 sequence (O75469 1-434): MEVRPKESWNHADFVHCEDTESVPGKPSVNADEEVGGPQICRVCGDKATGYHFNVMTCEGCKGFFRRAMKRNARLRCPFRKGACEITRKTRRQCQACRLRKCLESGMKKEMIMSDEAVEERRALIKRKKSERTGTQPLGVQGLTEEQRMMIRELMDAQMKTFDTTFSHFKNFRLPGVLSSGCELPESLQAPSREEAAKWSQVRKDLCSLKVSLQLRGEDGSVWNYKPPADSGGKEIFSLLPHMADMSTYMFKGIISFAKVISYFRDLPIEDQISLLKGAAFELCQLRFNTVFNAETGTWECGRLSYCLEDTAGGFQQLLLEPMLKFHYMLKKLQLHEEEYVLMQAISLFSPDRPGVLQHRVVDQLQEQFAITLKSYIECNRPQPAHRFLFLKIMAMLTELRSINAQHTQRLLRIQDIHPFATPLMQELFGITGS
The following applies: HepG2, rifampicin 1 or 5 μM.

Another data set deals with T13, GSPT1 (Homo sapiens, UniProt P15170).
T13 construct: GSPT1 protein expression in HepaRG cells treated with different concentrations of MI1013 and MI1155 for 24 h; endogenous in cells; host or cells: HepaRG
The data set can be described thus: Western blot of GSPT1 in HepaRG cells. Type of data set: cell-based. Particulars: 24 h. The method, then: as §2

T5 sequence (O60674 whole entry): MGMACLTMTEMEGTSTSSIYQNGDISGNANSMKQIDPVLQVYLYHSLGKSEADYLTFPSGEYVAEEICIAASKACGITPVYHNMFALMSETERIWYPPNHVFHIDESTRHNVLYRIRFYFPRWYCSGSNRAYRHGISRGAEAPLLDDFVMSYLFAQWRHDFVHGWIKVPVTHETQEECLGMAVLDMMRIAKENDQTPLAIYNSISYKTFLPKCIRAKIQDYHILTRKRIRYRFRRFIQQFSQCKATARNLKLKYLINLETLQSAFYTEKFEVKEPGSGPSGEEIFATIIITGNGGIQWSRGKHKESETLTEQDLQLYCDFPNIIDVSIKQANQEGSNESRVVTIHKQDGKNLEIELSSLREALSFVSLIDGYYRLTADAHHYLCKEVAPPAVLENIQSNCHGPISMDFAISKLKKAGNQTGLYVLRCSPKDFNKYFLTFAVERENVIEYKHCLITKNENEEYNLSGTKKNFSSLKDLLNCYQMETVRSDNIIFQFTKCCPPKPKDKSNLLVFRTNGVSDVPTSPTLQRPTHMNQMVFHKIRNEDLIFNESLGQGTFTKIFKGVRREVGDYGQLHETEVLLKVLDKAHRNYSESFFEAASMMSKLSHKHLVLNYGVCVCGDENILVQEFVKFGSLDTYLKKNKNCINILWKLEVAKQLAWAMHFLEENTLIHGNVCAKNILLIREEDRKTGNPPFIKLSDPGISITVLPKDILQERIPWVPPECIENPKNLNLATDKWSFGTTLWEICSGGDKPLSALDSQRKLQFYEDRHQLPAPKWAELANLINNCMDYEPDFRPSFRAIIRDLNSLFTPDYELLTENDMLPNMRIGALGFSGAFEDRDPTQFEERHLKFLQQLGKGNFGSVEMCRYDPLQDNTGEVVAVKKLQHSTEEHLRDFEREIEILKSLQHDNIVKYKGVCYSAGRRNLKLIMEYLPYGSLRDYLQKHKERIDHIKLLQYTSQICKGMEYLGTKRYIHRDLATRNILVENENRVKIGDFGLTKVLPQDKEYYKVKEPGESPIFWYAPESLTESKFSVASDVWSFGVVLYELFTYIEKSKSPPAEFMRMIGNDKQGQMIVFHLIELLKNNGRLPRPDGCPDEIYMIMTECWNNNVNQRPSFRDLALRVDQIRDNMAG
T6 sequence (Q15418 whole entry): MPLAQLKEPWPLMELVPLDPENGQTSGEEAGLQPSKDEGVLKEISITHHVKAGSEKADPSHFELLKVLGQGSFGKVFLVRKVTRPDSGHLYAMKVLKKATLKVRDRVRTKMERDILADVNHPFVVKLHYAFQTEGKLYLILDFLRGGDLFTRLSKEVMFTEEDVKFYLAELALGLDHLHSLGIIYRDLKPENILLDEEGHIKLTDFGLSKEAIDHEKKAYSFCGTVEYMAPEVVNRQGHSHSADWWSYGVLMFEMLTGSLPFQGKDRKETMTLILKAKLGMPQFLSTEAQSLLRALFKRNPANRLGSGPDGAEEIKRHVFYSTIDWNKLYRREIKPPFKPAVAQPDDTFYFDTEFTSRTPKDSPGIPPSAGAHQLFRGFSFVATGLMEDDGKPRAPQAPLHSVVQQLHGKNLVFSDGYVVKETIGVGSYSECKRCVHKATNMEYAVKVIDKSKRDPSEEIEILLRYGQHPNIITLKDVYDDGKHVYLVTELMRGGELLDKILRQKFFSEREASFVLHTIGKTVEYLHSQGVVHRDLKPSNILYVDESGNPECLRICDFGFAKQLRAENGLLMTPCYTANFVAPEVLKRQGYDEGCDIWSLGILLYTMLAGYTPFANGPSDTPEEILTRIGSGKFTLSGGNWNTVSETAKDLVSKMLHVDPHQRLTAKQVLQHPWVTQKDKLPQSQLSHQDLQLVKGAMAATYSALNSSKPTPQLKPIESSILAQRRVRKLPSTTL
T8 sequence (P42336 whole entry): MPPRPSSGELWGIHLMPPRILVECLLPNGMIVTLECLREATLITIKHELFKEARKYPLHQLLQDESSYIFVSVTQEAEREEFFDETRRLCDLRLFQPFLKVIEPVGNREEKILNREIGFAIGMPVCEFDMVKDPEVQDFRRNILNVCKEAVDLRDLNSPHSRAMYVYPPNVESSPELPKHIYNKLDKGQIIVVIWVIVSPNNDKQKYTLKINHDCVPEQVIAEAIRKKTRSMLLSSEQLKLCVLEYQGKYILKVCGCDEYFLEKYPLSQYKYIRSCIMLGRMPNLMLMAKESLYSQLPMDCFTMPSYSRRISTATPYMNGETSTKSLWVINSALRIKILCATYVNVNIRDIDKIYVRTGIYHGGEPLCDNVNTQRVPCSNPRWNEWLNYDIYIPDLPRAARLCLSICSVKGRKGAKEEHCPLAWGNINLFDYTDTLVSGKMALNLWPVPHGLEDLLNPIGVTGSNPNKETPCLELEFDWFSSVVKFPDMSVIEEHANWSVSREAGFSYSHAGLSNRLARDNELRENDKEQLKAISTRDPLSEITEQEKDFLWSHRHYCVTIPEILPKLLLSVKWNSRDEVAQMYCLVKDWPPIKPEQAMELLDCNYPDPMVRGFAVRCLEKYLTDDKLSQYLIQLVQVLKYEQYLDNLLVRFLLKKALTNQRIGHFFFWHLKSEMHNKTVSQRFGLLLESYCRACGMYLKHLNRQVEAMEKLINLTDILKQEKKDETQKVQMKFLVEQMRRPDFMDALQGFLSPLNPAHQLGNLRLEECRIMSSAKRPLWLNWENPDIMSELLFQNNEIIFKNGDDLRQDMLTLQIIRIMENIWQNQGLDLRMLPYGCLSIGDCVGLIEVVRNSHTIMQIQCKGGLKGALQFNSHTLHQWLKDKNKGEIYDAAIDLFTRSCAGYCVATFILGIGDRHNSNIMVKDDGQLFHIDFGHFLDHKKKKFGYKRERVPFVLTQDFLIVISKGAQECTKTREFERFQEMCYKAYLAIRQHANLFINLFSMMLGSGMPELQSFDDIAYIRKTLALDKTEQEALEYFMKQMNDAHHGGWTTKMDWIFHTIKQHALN
T8 sequence (P27986 whole entry partner): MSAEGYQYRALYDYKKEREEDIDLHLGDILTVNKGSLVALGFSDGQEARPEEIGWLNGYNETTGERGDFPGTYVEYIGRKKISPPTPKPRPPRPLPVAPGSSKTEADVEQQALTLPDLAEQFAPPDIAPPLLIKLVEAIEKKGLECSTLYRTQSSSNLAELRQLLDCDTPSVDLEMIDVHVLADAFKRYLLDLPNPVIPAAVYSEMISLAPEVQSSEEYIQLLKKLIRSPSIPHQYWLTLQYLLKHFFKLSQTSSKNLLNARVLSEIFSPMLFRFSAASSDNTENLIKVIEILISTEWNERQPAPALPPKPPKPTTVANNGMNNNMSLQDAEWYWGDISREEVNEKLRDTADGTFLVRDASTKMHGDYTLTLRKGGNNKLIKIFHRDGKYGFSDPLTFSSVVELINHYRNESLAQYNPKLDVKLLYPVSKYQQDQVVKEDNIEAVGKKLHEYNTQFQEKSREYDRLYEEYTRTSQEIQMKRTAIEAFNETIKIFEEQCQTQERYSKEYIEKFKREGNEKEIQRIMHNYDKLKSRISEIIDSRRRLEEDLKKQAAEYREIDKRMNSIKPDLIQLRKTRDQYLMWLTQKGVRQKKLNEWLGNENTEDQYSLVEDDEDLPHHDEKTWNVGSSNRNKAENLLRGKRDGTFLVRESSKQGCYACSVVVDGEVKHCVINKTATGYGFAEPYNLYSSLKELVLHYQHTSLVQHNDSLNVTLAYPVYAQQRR
T10 sequence (Q02750 whole entry): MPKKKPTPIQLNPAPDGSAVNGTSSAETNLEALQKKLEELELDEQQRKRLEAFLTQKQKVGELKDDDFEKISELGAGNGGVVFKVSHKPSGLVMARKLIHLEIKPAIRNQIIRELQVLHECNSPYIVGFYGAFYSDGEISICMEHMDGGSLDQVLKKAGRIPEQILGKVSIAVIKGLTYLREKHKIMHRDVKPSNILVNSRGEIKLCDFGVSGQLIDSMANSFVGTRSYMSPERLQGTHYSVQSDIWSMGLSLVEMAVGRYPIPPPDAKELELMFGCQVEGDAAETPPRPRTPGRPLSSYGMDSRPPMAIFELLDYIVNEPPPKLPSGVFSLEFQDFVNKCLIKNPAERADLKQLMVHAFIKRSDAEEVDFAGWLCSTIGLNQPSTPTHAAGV
T3 sequence (Q96SB4 whole entry): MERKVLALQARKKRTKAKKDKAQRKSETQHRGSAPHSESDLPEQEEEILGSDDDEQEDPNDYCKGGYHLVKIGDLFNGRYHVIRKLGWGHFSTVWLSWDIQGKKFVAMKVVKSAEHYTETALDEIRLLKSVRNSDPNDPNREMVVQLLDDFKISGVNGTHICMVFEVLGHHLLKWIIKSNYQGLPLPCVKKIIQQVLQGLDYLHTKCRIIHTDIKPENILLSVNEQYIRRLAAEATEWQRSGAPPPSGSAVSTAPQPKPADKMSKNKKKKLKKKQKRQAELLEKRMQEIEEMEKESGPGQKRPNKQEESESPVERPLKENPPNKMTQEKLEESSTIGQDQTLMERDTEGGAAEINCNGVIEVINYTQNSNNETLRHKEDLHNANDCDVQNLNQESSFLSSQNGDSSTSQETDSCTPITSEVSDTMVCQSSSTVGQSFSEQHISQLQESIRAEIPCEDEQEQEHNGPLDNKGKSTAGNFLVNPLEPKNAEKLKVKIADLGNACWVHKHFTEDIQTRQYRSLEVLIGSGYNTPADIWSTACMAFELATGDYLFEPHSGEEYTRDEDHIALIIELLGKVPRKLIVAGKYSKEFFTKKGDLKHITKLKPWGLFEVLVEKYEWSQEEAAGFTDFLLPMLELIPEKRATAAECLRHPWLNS
Method for PXR: The PXR activity was assessed as the PXR-dependent transcriptional activation using the construct. […] The control vector pRL-TK (Promega) constitutively expresses Renilla luciferase. […] Transient transfection experiments followed published protocols used in our laboratory and described before. , Luciferase reporter assays were conducted to evaluate interactions with PXR or CAR and their variants in HepG2, or COS-1. Cells were seeded at a density of 40,000 cells/cm^2 in 48-well plates (ThermoFisher Scientific) and maintained at 37 °C in a humidified atmosphere with 5% CO2. […] Following seeding, HepG2 cells were transfected with 150 ng/well of a luciferase reporter construct and 100 ng/well of a nuclear receptor expression vector using Lipofectamine 3000 (ThermoFisher Scientific) and with pRL-TK (30 ng/well) serving as the normalization control. After 24 h, cells were treated with test compounds for 24 h before cell lysis and subsequent firefly and Renilla luciferase activity analysis using the Dual-Glo Luciferase Assay System (Promega). […] The activities of test compounds were normalized to the respective controls to determine % activation or inhibition.

Take `NC(=O)c1cc(Cn2cc(-c3c(-c4ccc(Cl)cc4)nc4c(F)cc(F)cn34)nn2)ccc1Cl` [Compound 11, 2-Chloro-5-((4-(2-(4-chlorophenyl)-6,8-difluoroimidazo[1,2-a]pyridin-3-yl)-1H-1,2,3-triazol-1-yl)methyl)-benzamide]: at CAR3 variant, the “activation of CAR3 variant” value is recorded as “no significant activation”. Moreover, the half-life at 5 μM in [1] was > 45 min. Also, the activity at 1 µM worked out at 101% at MAPKAP-K2(h); 104% on Abl(h); 92% on CDK6/cyclinD3(h); 98% at SRPK1(h); 110% on MSK2(h); 101% at JAK2(h). The activity at 1 µM at Rsk1(h) was 129%; at IRAK4(h) it was 112%; in [2] it was 92%; at PKCα(h), 97%; on AMPKα1(h), 102%; at MEK1(h), 94%. The activity at 1 µM on LOK(h) and at CDK7/cyclinH/MAT1(h) was 94% each time.
As to “N-(4-((1-(2,5-dimethoxyphenyl)-5-methyl-1H-1,2,3-triazol-4-yl)sulfonyl)phenyl)-3-(2-(2-(2-(4-(((2-(2,6-dioxopiperidin-3-yl)-1,3-dioxoisoindolin-4-yl)amino)methyl)-1H-1,2,3-triazol-1-yl)ethoxy)ethoxy)ethoxy)propenamide [Compound 36]”, the RXRα degradation entry with RXRα was “does not degrade”. Also, the “inhibition of PXR activation by rifampicin” value on PXR is listed as “concentration-dependent inhibition of PXR activation by rifampicin”. Besides, the GSPT1 degradation entry on GSPT1 is “does not degrade”.
